These results are taken from patent publication US20110105496A1, “Methods For The Treatment Of Myosin Heavy Chain-Mediated Conditions Using 4,7-Dihydrothieno[2,3-B]Pyridine Compounds” (priority 2005, published 2011).

Read-outs that look alike come from different tables or passages of the source.

This experiment relates to alpha-MyHC. Briefly: alpha-MyHC cytoblot process in neonatal rat ventricular myocytes (NRVM). The note with it: for EC50: alpha-MyHC cytoblot. Type of experiment: cell-based.
The mark [1] stands for this setting: Table 1, NRVM, 72 hours, mean ± spread.
[2] abbreviates: Table 1, NRVM, 72 hours, maximum of dose response fit, low control = vehicle only.
[3] abbreviates: Table 2 (esters), NRVM, 72 hours.
Where [4] appears, read: Table 2 (esters), NRVM, 72 hours, maximum of dose response fit.
Setting [5] is: Table 5 (R^4 substituted), NRVM, 72 hours, maximum of dose response fit.

One may read the EC50 as the concentration that produces a half-maximal response. The low end stands for higher potency in that assay, the high end for lower potency in that assay.

Under setting [1], `CCC(=O)C1=C(CC)Nc2sc(C(=O)c3cc(C(F)(F)F)cc(C(F)(F)F)c3)c(N)c2C1c1ccccc1` (centres unmarked) [Compound 73] registered an EC50 of 8.92 nM. Further, the “Max Plateau” value under setting [2] was 205.27 ± 38.78 per cent fraction of low control.

`CCC1=C(C(=O)OC)C(c2ccnc(F)c2)c2c(sc(C(=O)c3cccc(Cl)c3)c2N)N1` (racemic) [Compound 175] yielded an EC50 under setting [3] of 0.183 nM. Further, the “Max Plateau” value under setting [4] is listed as 289.91 per cent fraction of low control.

Compound `COCCOCN1C(C)=C(C(C)=O)C(c2ccccc2)c2c1sc(C(=O)c1ccccc1)c2N` (racemic) [Compound 209] registered a concentration for a half-maximal effect (EC50) (Table 5 (R^4 substituted), NRVM, 72 hours) of 393 nM. Moreover, under setting [5], the “Max Plateau” value is given as 192.74 per cent fraction of low control.

`CCC(=O)C1=C(CC)Nc2sc(C(=O)c3ccc(F)c(F)c3)c(N)c2C1c1ccnc(F)c1` (centres unmarked) [Compound 102]: the EC50 under setting [1] turned out to be 4.18 nM. In addition, under setting [2], the “Max Plateau” value is 269.88 ± 36.90 per cent fraction of low control.

Under setting [3], `CCOC(=O)C1=C(CC)Nc2sc(C(=O)c3ccc(Cl)c(Cl)c3)c(N)c2C1c1ccccc1F` (centres unmarked) [Compound 142] displayed an EC50 of 6.78 nM. Besides, under setting [4], the “Max Plateau” value is on record as 194.32 per cent fraction of low control.

The compound `CC(=O)C1=C(C)Nc2sc(C(=O)c3ccc(Cl)c(Cl)c3)c(N)c2C1c1ccc(Br)cc1` (centres unmarked) [Compound 22] showed an EC50 under setting [1] of 2070 nM. Further, under setting [2], the “Max Plateau” value is on record as 174.35 ± 23.39 per cent fraction of low control.

For `CCC(=O)C1=C(CC)Nc2sc(C(=O)c3cccnc3)c(N)c2C1c1ccnc(F)c1` (centres unmarked) [Compound 103], the response under setting [1] was half-maximal at 10.5 nM (EC50). The “Max Plateau” value under setting [2] was 254.65 ± 31.26 per cent fraction of low control.

Turning to `CCC1=C(C(=O)OC)C(c2cccc(Cl)c2F)c2c(sc(C(=O)c3cccc([N+](=O)[O-])c3)c2N)N1` (centres unmarked) [Compound 156], the EC50 under setting [3] was 3.69 nM. The “Max Plateau” value under setting [4] is recorded as 243.78 per cent fraction of low control.

The compound `CCOC(=O)C1=C(CC)Nc2sc(C(=O)c3cc(C(F)(F)F)cc(C(F)(F)F)c3)c(N)c2C1c1ccccc1` (centres unmarked) [Compound 149] registered a concentration for a half-maximal effect (EC50) under setting [3] of 11.1 nM. In addition, the “Max Plateau” value under setting [4] is given as 207.18 per cent fraction of low control.

In the case of `COC(=O)C1=C(C(C)C)Nc2sc(C(=O)c3cccc(C#N)c3)c(N)c2C1c1ccccc1F` (racemic) [Compound 177], the concentration giving a half-maximal response (EC50) under setting [3] was 796 nM. Also, the “Max Plateau” value under setting [4] was 162.75 per cent fraction of low control.

Take `CCC(=O)C1=C(CC)Nc2sc(C(=O)c3ccc(Cl)c(Cl)c3)c(N)c2C1c1ccc(O)cc1Cl` (centres unmarked) [Compound 83]: the response under setting [1] was half-maximal at 0.249 nM (EC50). Also, under setting [2], the “Max Plateau” value is 274.88 ± 44.56 per cent fraction of low control.

Compound `CCC1=C(C(=O)OC)C(c2ccccc2F)c2c(sc(C(=O)c3cccc(Cl)c3)c2N)N1` (centres unmarked) [Compound 167] came in with an EC50 under setting [3] of 111000 nM. Under setting [4], the “Max Plateau” value was 255.95 per cent fraction of low control.

In the case of `CC(=O)NCCOC(=O)C1=C(C)Nc2sc(C(=O)c3ccc(Cl)c(Cl)c3)c(N)c2C1c1ccccc1` (centres unmarked) [compound 214], the “Max Plateau” value is 100.00 ± 0.00.

Turning to `CCC1=C(C(=O)OCC(C)OC)C(c2ccccc2F)c2c(sc(C(=O)c3cccc(C#N)c3)c2N)N1` (centres unmarked) [Compound 185], a half-maximal effect under setting [3] (EC50) was put at 1710 nM. Further, the “Max Plateau” value under setting [4] is listed as 172.89 ± 23.52 per cent fraction of low control.

As to `CC(=O)C1=C(C)N(C)c2sc(C(=O)c3ccccc3)c(N)c2C1c1ccccc1` (centres unmarked) [Compound 208, 1-(3-amino-2-benzoyl-6,7 dimethyl-4-phenyl-4,7 dihydro-thieno[2,3-b]pyridin-5-yl)-ethanone], the “Max Plateau” value under setting [5] is reported as 173.33 per cent fraction of low control.

As to `CCC1=C(C(=O)OC)C(c2c(F)cccc2F)c2c(sc(C(=O)c3ccc(Cl)c(Cl)c3)c2N)N1` (centres unmarked) [Compound 137], the 50% effective concentration (EC50) under setting [3] came to 15.6 nM. Further, the “Max Plateau” value under setting [4] is listed as 213.90 per cent fraction of low control.

`CCC(=O)C1=C(CC)Nc2sc(C(=O)c3ccc(F)cc3)c(N)c2C1c1ccccc1` (centres unmarked) [Compound 79] showed a half-maximal effective concentration (EC50) under setting [1] of 40.8 nM. For the same compound, under setting [2], the “Max Plateau” value was 241.90 ± 15.79 per cent fraction of low control.

Under setting [1], `CCC(=O)C1=C(CC)Nc2sc(C(=O)c3ccc(Cl)c(Cl)c3)c(N)c2C1c1ccnc(F)c1` (centres unmarked) [Compound 98] returned a concentration giving a half-maximal response (EC50) of 4.99 nM. The “Max Plateau” value under setting [2] was 255.02 ± 32.01 per cent fraction of low control.

`COC(=O)C1=C(C2CC2)Nc2sc(C(=O)c3cccc(Cl)c3)c(N)c2C1c1ccnc(F)c1` (racemic) [Compound 176] displayed a concentration giving a half-maximal response (EC50) under setting [3] of 42.1 nM. Moreover, under setting [4], the “Max Plateau” value is reported as 218.25 per cent fraction of low control.

With `CC(=O)C1=C(C)Nc2sc(C(=O)c3cccc(F)c3)c(N)c2C1c1ccccc1` (centres unmarked) [Compound 61], the concentration giving a half-maximal response (EC50) under setting [1] is 97.1 nM. Moreover, the “Max Plateau” value under setting [2] is 230.65 ± 55.61 per cent fraction of low control.

`CCC1=C(C(=O)OC)C(c2ccccc2)c2c(sc(C(=O)c3cccc([N+](=O)[O-])c3)c2N)N1` (centres unmarked) [Compound 139]: the midpoint of the response under setting [3], the EC50, lay at 6.91 nM. Also, the “Max Plateau” value under setting [4] is reported as 281.08 per cent fraction of low control.

Consider `CCOC(=O)C1=C(C)Nc2sc(C(=O)c3ccccc3)c(N)c2C1(C)c1ccccc1` (centres unmarked) [Compound 206], for which the “Max Plateau” value (Table 4, NRVM, 72 hours, maximum of dose response fit) is listed as 169.32 ± 23.07 per cent fraction of low control.

In turn, `CCC(=O)C1=C(CC)Nc2sc(C(=O)c3ccc(Cl)c(Cl)c3)c(N)c2C1c1ccccc1C` (centres unmarked) [Compound 56] displayed an EC50 under setting [1] of 42.9 nM. Also, the “Max Plateau” value under setting [2] is reported as 293.74 ± 50.82 per cent fraction of low control.

Take `CCCC(=O)C1=C(CCC)Nc2sc(C(=O)c3ccc(Cl)cc3Cl)c(N)c2C1c1ccccc1F` (centres unmarked) [Compound 91]: the EC50 under setting [1] was 198 nM. The “Max Plateau” value under setting [2] is listed as 143.39 ± 20.69 per cent fraction of low control.

Turning to `Nc1c(C(=O)c2ccccc2)sc2c1C(c1ccccc1)C(C(=O)c1ccccc1)=C(c1ccccc1)N2` (centres unmarked) [Compound 30], the “Max Plateau” value under setting [2] is listed as 100.00 ± 0.00 per cent fraction of low control.

Under setting [1], `CCC(=O)C1=C(CC)Nc2sc(C(=O)c3ccc(Cl)c(Cl)c3)c(N)c2C1c1cccc([N+](=O)[O-])c1` (centres unmarked) [Compound 58] yielded an EC50 of 129 nM. Also, under setting [2], the “Max Plateau” value is 232.20 ± 56.57 per cent fraction of low control.

Regarding `COCCOC(=O)C1=C(C)Nc2sc(C(=O)c3ccc(Cl)c(Cl)c3)c(N)c2C1c1ccccc1` (centres unmarked) [Compound 119], the EC50 under setting [3] came out at 142 nM. The “Max Plateau” value under setting [4] is listed as 234.93 per cent fraction of low control.

`CC1=C(C(=O)OCC2CCCN2C)C(c2ccccc2)c2c(sc(C(=O)c3ccc(Cl)c(Cl)c3)c2N)N1` (centres unmarked) [Compound 129] came in with a concentration for a half-maximal effect (EC50) under setting [3] of 4580 nM. Under setting [4], the “Max Plateau” value is listed as 150.08 ± 9.89 per cent fraction of low control.

The compound `COC(=O)C1=C(C2CC2)Nc2sc(C(=O)c3ccc(Cl)c(Cl)c3)c(N)c2C1c1ccccc1F` (centres unmarked) [Compound 144] yielded an EC50 under setting [3] of 63.3 nM. Further, under setting [4], the “Max Plateau” value is recorded as 187.17 per cent fraction of low control.

Take `CC(=O)C1=C(C)Nc2sc(C(=O)c3cccc(C(=O)O)c3)c(N)c2C1c1ccccc1` (centres unmarked) [Compound 65]: the “Max Plateau” value under setting [2] is reported as 100.00 ± 0.00 per cent fraction of low control.

On to `CCOC(=O)C1=C(CC)Nc2sc(C(=O)c3ccc(Cl)c(Cl)c3)c(N)c2C1c1ccncc1Cl` (centres unmarked) [Compound 169], for which it took 4.95 nM to reach a half-maximal effect under setting [3] (EC50). The “Max Plateau” value under setting [4] is on record as 261.04 per cent fraction of low control.

The compound `CCC1=C(C(=O)OC(C)CC)C(c2ccccc2F)c2c(sc(C(=O)c3ccc(Cl)c(Cl)c3)c2N)N1` (single isomer, unassigned) [Compound 163] showed an EC50 under setting [3] of 142 nM. For the same compound, under setting [4], the “Max Plateau” value is 224.85 per cent fraction of low control.

Under setting [1], `CCC(=O)C1=C(CC)Nc2sc(C(=O)c3ccccc3)c(N)c2C1c1cc(F)cc(F)c1` (centres unmarked) [Compound 105] displayed a 50% effective concentration (EC50) of 4.38 nM. Moreover, the “Max Plateau” value under setting [2] was 273.18 ± 37.33 per cent fraction of low control.

In turn, `CC(=O)C1=C(C)Nc2sc(C(=O)c3ccccc3)c(N)c2C1c1ccc(F)cc1` (centres unmarked) [Compound 37] registered a concentration giving a half-maximal response (EC50) under setting [1] of 281 nM. The “Max Plateau” value under setting [2] is recorded as 227.92 ± 12.46 per cent fraction of low control.

For `CCCCNC(=O)C1=C(C)Nc2sc(C(=O)c3ccc(Cl)c(Cl)c3)c(N)c2C1c1ccccc1` (racemic) [Compound 196], the midpoint of the response (Table 3 (amides), NRVM, 72 hours), the EC50, lay at 334000 nM. Under “Table 3 (amides), NRVM, 72 hours, maximum of dose response fit”, the “Max Plateau” value was 121.93 ± 25.12 per cent fraction of low control.

Consider `CCC(=O)C1=C(CC)Nc2sc(C(=O)c3cccc([N+](=O)[O-])c3)c(N)c2C1c1ccccc1F` (centres unmarked) [Compound 97], for which the EC50 under setting [1] is 1.64 nM. In addition, the “Max Plateau” value under setting [2] was 247.24 ± 38.88 per cent fraction of low control.

For the setting “Rattus norvegicus, Ventricular myocyte, Table 4, NRVM, 72 hours”, `CCOC(=O)C1=C(C)Nc2sc(C(=O)c3cccc(Br)c3)c(N)c2C1(C)c1ccccc1` (centres unmarked) [Compound 197] came in with an EC50 of 792 nM. For the same compound, the Emax (Rattus norvegicus, Ventricular myocyte, Table 4, NRVM, 72 hours, maximum of dose response fit, read-out: Max Plateau) came out at 160 ± 10.9%.

Take `CCC(=O)C1=C(CC)Nc2sc(C(=O)c3ccc(Cl)c(Cl)c3)c(N)c2C1c1ccncc1` (centres unmarked) [Compound 104, 1-[3-amino-2-(3,4 dichloro-benzoyl)-6-ethyl-4 pyridin-4-yl-4,7 dihydro-thieno[2,3-b]pyridin-5-yl]-propan-1-one]: the “Max Plateau” value under setting [2] is recorded as 242.77 ± 33.52 per cent fraction of low control.

`COc1ccc(C2C(C(C)=O)=C(C)Nc3sc(C(=O)c4ccccc4)c(N)c32)cc1` (centres unmarked) [Compound 14] gave an EC50 under setting [1] of 3030 nM. Besides, under setting [2], the “Max Plateau” value was 182.73 ± 26.95 per cent fraction of low control.

As to `CCC1=C(C(=O)OCCOC)C(c2ccccc2F)c2c(sc(C(=O)c3cccc(C#N)c3)c2N)N1` (racemic) [Compound 178], the “Max Plateau” value under setting [4] was 258.67 ± 45.31 per cent fraction of low control.

`CCC1=C(C(=O)OC)C(c2cc(F)cc(F)c2)c2c(sc(C(=O)c3ccc(F)c(F)c3)c2N)N1` (centres unmarked) [Compound 170] returned a concentration for a half-maximal effect (EC50) under setting [3] of 1.89 nM. In addition, the “Max Plateau” value under setting [4] is given as 262.16 per cent fraction of low control.

The compound `CC(=O)C1=C(C)Nc2sc(C(=O)c3ccc(Cl)c(Cl)c3)c(N)c2C1c1ccc(O)cc1Cl` (centres unmarked) [Compound 29] returned a half-maximal effective concentration (EC50) under setting [1] of 15.5 nM. For the same compound, the “Max Plateau” value under setting [2] is recorded as 281.88 ± 32.78 per cent fraction of low control.
